In data set [1] the test system is B16-F10 melanoma cells.
The nature of data set [2]: in vivo. The following applies: SD, rat, iv, 5 mg/kg.
Method: Eight week-old SD rats were randomly divided into three groups (doxorubicin, CAELYX and CAELYX+omega liposome), respectively. Each group was anesthetized with 100 mg/kg of ketamine, followed by inserting polyethylene tubes into the jugular vein and the carotid for drug injection and blood gathering, respectively. To the three groups, the doxorubicin solution, CAELYX and a CAELYX+omega liposome mixture were intravenously administered through the jugular vein at a 5 mg/kg doxorubicin dose. Thereafter, 120 μL of blood was collected at 1, 5, 15, 30, 60, 120, 180, 240, 360, 480, 720, 960, 1,440, 2,160 and 2,880 minutes, respectively, and centrifuged, followed by gathering 50 μl of plasma to analyze a doxorubicin concentration through HPLC. In order to prevent blood coagulation after blood gathering, 0.3 mL of physiological saline for injection containing 201U of heparin was flushed. In addition, after drug administration, urine was collected up to 24 hours and measured for volume.
For quantification of doxorubicin concentration in plasma and urine, 100 μL of acetonitrile and 15 μL of 15 μg/mL daunorubicin (internal standard material) were added and well mixed in 50 μL of the plasma or urine, and then centrifuged at 13,000 rpm for 5 minutes to remove the plasma protein. Thereafter, 100 μL of the supernatant was introduced into HPLC column (reversed phase column, particle size 5 inner diameter 4.6 mm, length 250 mm). Mobile phase composed of 68:32 (v/v) mixture of water (pH 2.60) and acetonitrile was used at a flow rate of 1 mL/min. For detection of drugs, a fluorescence detector was used wherein excitation (Ex) wavelength is 475 nm and emission (Em) wavelength is 555 nm.
The plasma concentration of doxorubicin quantified by HPLC assay was used to calculate pharmacokinetic parameters using WinNonlin program. For statistical analysis of the pharmacokinetic parameters among the above three groups, Tukey's test was carried out after performing analysis of variance (ANOVA), wherein P<0.05 is considered to be statistically significant.
Data set [3] concerns HCT-116 colorectal cancer cells.

Data on one compound can be found in patent US12485092B2, “Composition for promoting drug release of drug-delivery liposomes” (INDUSTRY ACADEMY COOPERATION FOUNDATION OF SEJONG UNIVERSITY, priority 2022, dated 2025).

Take `COc1cccc2c1C(=O)c1c(O)c3c(c(O)c1C2=O)C[C@@](O)(C(=O)CO)C[C@@H]3O[C@H]1C[C@H](N)[C@H](O)[C@H](C)O1` [Doxorubicin solution, doxorubicin]: the IC50 in data set [1] is 191 nM. Also, in data set [2], the AUC is 9820 ng·h/mL, the MRT is 1.18 h, the clearance was found to be 8.91 ± 2.06 mL/min/kg and the half-life was found to be 1.97 h. Half-maximal inhibition in data set [3] (IC50) was put at 265 nM.

What is called IC50 is the concentration needed to halve the response being measured. A higher IC50 goes with lower potency. Broadly, the AUC is the area under the concentration-time curve, a measure of exposure. Lower therefore signals less exposure. The MRT is a mean duration of stay, worked out from the concentration-time curve. As usually defined, the clearance is a measure of how efficiently the substance is removed, as volume per time. Higher therefore signals a high capacity for elimination. As usually defined, the half-life is the time needed for the level to fall by half in the phase considered. Low readings indicate fast loss, high ones slow loss.
